Experimental data: article PMC4796321, “Type 1 diabetes vaccine candidates promote human Foxp3^+Treg induction in humanized mice” (Nature Communications, 2016)

Molecular target: HLA-DQ8
Test: Competitive in vitro HLA-DQ8 binding assay
Parameters: species or system human
Conditions: competition with FITC-labelled GAD65 253-265 R255F peptide (10 μM), thrombin-cleaved HLA-DQ8 monomers 0.4 μM, 48 h at 37 °C; one-site competitive binding fit
Method: Competitive binding assays were carried out according to previously established procedures[30][67][68]: HLA-DQ8 monomers were kindly provided by R.A.W. from the NIH Tetramer Core Facility (Atlanta, USA). The CLIP peptide of HLA-DQ8 molecules was cleaved off by incubation with thrombin (Novagen) for 2 h (ref. [69]).
Specifically, a FITC-labelled GAD65 253-265^R255F peptide (IAFFKMFPEVKEK) was used as an indicator peptide (10 μM) for the binding reaction together with thrombin-cleaved HLA-DQ8 monomers (0.4 μM) and increasing concentrations of competitor peptides (natural insulin B:9-23, ins.mim.1,2,3,4, MP185-204). The MP185-204 peptide ([…]) was used as a positive DQ8-binding control. The indicator peptide incubated with DQ8 monomers in the absence of competitor peptide was used as positive control. For background analysis the binding reaction was performed without HLA-DQ8 monomers. The binding reaction was incubated for 48 h at 37 °C. Assays were then captured using anti-DQ antibody-coated plates (SPV-L3, Abcam, 15 μg ml^−1). Detection was performed using anti-FITC HRP (Abcam, 1:1,000) antibodies in combination with TMB substrate (BD Biosciences) and subsequent analysis with the Epoch plate reader (Biotech) at 450 and 405 nm. […]

ins.mim.1: novel human insulin-B-chain-10-23 mimetope with 14E, 21G and 22E
IC50: 3.2 µM

ins.mim.2: insulin-B:10-23 peptide variant with 21G and 22E, previously established
IC50: 6.3 µM
